{"source": "patent US6303596A", "about": "“Use of taurolidine for treatment of leukemias” (priority 2000, dated 2001)", "key": {"tissue factor (TF)": {"tested_on": "tissue factor (TF)", "test": "LPS-induced tissue factor (TF) expression in PBMC, ELISA", "assay_type": "cell-based, human", "description": "FIG. 2A represents MM6 cells; FIG. 2B represents PBMC. The cells were induced with LPS (hatched bars: 100 ng/ml LPS in RPMI supplemented with 10% BCS (RPMI+10% BCS); solid bars: 10 ng/ml in AIM-V+0.01% BCS) in the presence of varying concentrations of taurolidine,or with a dilution of the vehicle equivalent to that given to cells receiving 100 μg/ml taurolidine. After four hours, cells were collected and lysates were prepared for TF ELISA. Data are expressed as percent of TF antigen measured in cells treated with LPS alone (no taurolidine or vehicle). Experiments were performed with duplicate samples and were repeated at least three times. Values shown are mean±SEM of all experiments.\nFor induction of TF or TNFα expression, MM6 cells or PBMC were cultured either in RPMI supplemented with 10% BCS or in AIM-V+0.01% BCS, and stimulated by adding LPS to final concentrations of 10 to 100 ng/ml. […] Except as noted, taurolidine and LPS were added to the cell cultures simultaneously. For TF determination, cells and culture media together were treated by adding Triton X-100 (1% final) and EDTA (7 mmol/L final), and the resulting lysates assayed by ELISA. […] For TNFα determination, cells were removed by centrifugation for 5 min at 250×g, and the supernatants were assayed by ELISA."}, "[1]": {"tested_on": "ECV304 (endothelial cells)", "test": "trypan blue exclusion, ECV304", "assay_type": "cell-based, human", "conditions": "ECV304, after taurolidine treatment", "description": "FIGS. 10A and 10B depict cell viability and growth rates for ECV304 cell line following taurolidine treatment, in terms of % trypan blue negative cells and % cell number, respectively. Cells were treated with various concentrations of taurolidine for 4 hours in AIM-V+0.01% BCS. After aliquots were collected for LDH assay, the remainder of the culture was rinsed in HBSS and resuspended in RPMI+10% BCS without taurolidine. Counts of trypan blue-negative cells (FIG. 10A), and total cell number (FIG. 10B), were recorded daily thereafter (with the measurement at Day 1 being made immediately after the 4 hour taurolidine treatment). Conditions were: no treatment (open circles); 25 μg/ml taurolidine (closed circles); 50 μg/ml taurolidine (open squares); 100 μg/ml taurolidine (closed squares); and vehicle alone (closed triangles). Doubling times were determined under each condition, and expressed as a percentage of the rate of doubling of untreated cells. These values are located to the right of the growth curves in (FIG. 10B). […]\nHL-60 cells treated with 50 μl taurolidine. In these samples, LDH present in the culture medium was 8.3±2.3% of that released by completely lysed cells, compared with 2.3±0.8% measured in control cultures. […] After 4 hour treatment, cells were rinsed and returned to growth medium and monitored for viability and growth over the following 3 days. […]"}, "[2]": {"test": "TUNEL / propidium iodide flow cytometry, PBMC all cells, culture medium", "assay_type": "cell-based, human", "conditions": "human, pbmc, PBMC all cells, 6 h, mean ± SD of two experiments, read-out: % Propidium Iodide Positive", "description": "(§1) FIG. 14A and FIG. 14B are terminal deoxytransferase-mediated deoxyuridine-triphosphate-biotin nick end labeling assay (TUNEL) analyses of control cells and taurolidine-treated PBMC, respectively. Cells were incubated with 100 μg/ml taurolidine for six hours and processed for TUNEL analysis as given below. Parallel samples were stained with FITC-conjugated anti-CD14 and propidium iodide (PI) as described below. Ten thousand events were recorded per sample. TUNEL signal (x-axis) is a measure of DNA fragmentation, which FSC (y-axis) is related to cell size. TUNEL-negative lymphocytes are bounded by the rectangle R1, while TUNEL-negative monocytes (CD14 positive cells) are bounded by the rectangle R2. The vertical line indicates demarcation between TUNEL-negative and TUNEL-positive cells. There were minimal numbers of PI-positive cells in the six hour samples (see Table IV).\n(§2) In the second method, DNA fragmentation was detected via TUNEL assay according to the manufacturer's instructions. With this methodology, 2×10^6 cells were fixed with 2% paraformaldehyde, permeabilized with 0.1% Triton X-100/0.1% citrate, incubated at 37° C. with terminal deoxynucleotidyl transferase and FITC-dUTP, rinsed and analyzed by flow cytometry. Enhanced FITC signal indicates apoptosis-specific DNA fragmentation. Gavriali, et al, \"Identification of programmed cell death in situ via specific labeling of nuclear DNA fragmentation,\" J Cell Biol 119:493 (1992). Parallel aliquots of unfixed cells were treated with PI and FITC-conjugated anti-CD14 and analyzed by flow cytometry, in order to identify cells with permeable cell membranes (since PI binds to DNA but is excluded from cells with intact plasma membranes) and also to determine the cell-specificity of the apoptotic signal.\n(§3) A Becton-Dickinson FACSCalibur instrument was used for flow cytometric analysis of cells. Assessment of cell diameter (forward scatter; FCS) and granularity (side scatter; SSC).was carried out on unfixed cells. Discrimination between lymphocytes and monocytes was made possible by their characteristic differences in FSC and SSC, and confirmed by staining monocytes with FITC-labeled anti-CD14 antibodies and lymphocytes with a combination of FITC-conjugated anti-CD3 and PE-conjugated anti-CD19. After incubation with taurolidine (with or without concomitant LPS treatment), cells were rinsed twice in phosphate-buffered saline containing 0.1% bovine serum albumin (PBSA) and 1×10^6 cells were resuspended in 0.1 ml PBSA. After 5 μl FITC-conjugated anti-CD14 was added, cells were incubated in the dark on ice for 15 minutes and then centrifuged at 250×g. Cells were resuspended in 500 μl PBSA containing 5 μg/ml PI and subjected to flow cytometry.\n(§4) Consequently, TUNEL analysis was performed on PBMC at 3, 6, or 24 hours after treatment with 25 to 100 μg/ml taurolidine. Aliquots of harvested cells were also labeled with FITC-conjugated anti-CD14 antibodies and PI, which allowed identification of monocytes (CD14-positive cells) and cells with damaged cell membranes (PI-positive cells). […] Thus, nearly 75% of the monocytes were TUNEL-positive following treatment with 100 μg/ml taurolidine for six hours. Confirmation that the TUNEL-positive cells were monocytes was obtained by staining with FITC-conjugated anti-CD14.\n(§5) ^a Analysis by flow cytometry after staining cells with FITC-conjugated\n(§6) anti-CD14 and PI, and processing for TUNEL. Data are mean ± SD of two"}, "PBMC": {"tested_on": "PBMC", "test": "TUNEL / propidium iodide flow cytometry, PBMC all cells, culture medium", "assay_type": "cell-based, human", "conditions": "PBMC", "description": "as §1, §2, §3, §4, §5, §6"}, "[3]": {"conditions": "intravenous administration; cited from earlier work"}}, "note": "Like-named read-outs stand apart in the source and are kept apart here."}
{"smiles": "O=S1(=O)CCN(CN2CCS(=O)(=O)NC2)CN1", "note": "[taurolidine, 4,4'-methylenebis(perhydro-1,2,4-thiadiazin 1,1-dioxide)]", "values": [{"measurement": "inhibition of LPS-induced TF expression", "setting": "tissue factor (TF); PBMC, taurolidine 75 μg/ml, 4 h", "value": "complete inhibition of TF expression"}, {"measurement": "induction of TF in response to LPS (summary)", "setting": "tissue factor (TF); peripheral blood monocytes or cultured MM6 cells", "value": "strongly inhibited the induction of TF"}, {"measurement": "trypan blue staining during 4 day growth", "setting": "[1]", "value": "did not demonstrate a significant increase in trypan blue staining"}, {"measurement": "trypan blue staining during 4 day growth", "setting": "[1]; listed as Taurolidine", "value": "cells remained trypan blue negative"}, {"measurement": "cytotoxicity at 6 h", "setting": "[2]; 25 μg/ml", "value": "9 ± 3.2", "unit": "%"}, {"measurement": "cytotoxicity at 6 h", "setting": "[2]; 50 μg/ml", "value": "12.2 ± 5.6", "unit": "%"}, {"measurement": "cytotoxicity at 6 h", "setting": "[2]; 100 μg/ml", "value": "9 ± 3.5", "unit": "%"}, {"measurement": "TUNEL-positive PBMC", "setting": "PBMC; 100 μg/ml, 6 h", "value": "substantial population of TUNEL-positive cells"}, {"measurement": "TUNEL-positive PBMC", "setting": "PBMC; 3 h incubation", "value": "relatively few"}, {"measurement": "PI-positive cells versus control", "setting": "PBMC; taurolidine, 6 h", "value": "equivalently low levels of PI-positive cells"}, {"measurement": "alterations in hematologic variables, including white cell count", "setting": "[3]", "value": "does not cause detectable alterations"}]}
